Data taken from patent US10829446B2, “Aryl sulfonohydrazides” (MONASH UNIVERSITY, priority 2015, dated 2020).

Legend:
[1] = molecular target: MOZ enzyme (Homo sapiens (Human), UniProt Q92794); assay: Moz biochemical assay (AlphaScreen histone H4 peptide acetylation)
[2] = tested on: INK4a and ARF null cells; assay: Bioassay 1 repeated in INK4a and ARF null cells; assay type: cell-based; details: 1 μM, 2 μM, 5 μM, 10 μM
Description: Cells are plated in triplicate cultures at 10,204 cells/cm^2 in the presence of a test compound. Compounds are tested at 500 nM, 1 μM, 2 μM, 5 μM, 10 μM and 20 μM. Control compounds include those that have a similar structure but show no activity in biochemical assays. After 48 hours, cells are passaged and counted, then replated at 10,204/cm^2. This procedure is continued for 336 hours. The total number of cells produced at each passage is then calculated and compared between treatment groups. […] Cells are analysed by flow cytometry for the absence of markers of apoptosis by staining with propidium iodide and FITC-conjugated annexin V. The level of DNA damaged is assessed by γH2A.X staining, a marker of DNA strand breaks.
The mechanism of action of these compounds, i.e. causing cell cycle arrest and senescence, was confirmed by repeating this assay using cells in which the INK4a/ARF pathways was inactivated by genetic deletion of a key exon common to both INK4a and the alternative splice product of the CDKN2a locus ARF.

[3] = tested on: B cell lineage; assay: Bioassay 10: effect on the B cell lineage in treated mice; assay type: in vivo; details: for numbers of pre B cells in the bone marrow: in words, daily I.P. injection; for immature B cells, percentage of WBC per femur / mature B cells, percentage of WBC per femur / pre-B cells, percentage of WBC per femur / pro-B cells, percentage of WBC per femur: wild type mice, 50 mg/kg I.P. daily
Description: Mice were treated with compounds at the dosage of 50 mg/kg by I.P injection. Compounds are prepared for injection as a slurry in 50% PEG400/H2O. The effect on the B cell lineage is determined by fluorescent cytometry using characteristic cell surface markers expressed at different stages of B cell development.

[4] = tested on: Cdc6 mRNA; assay: Bioassay 2: RT-qPCR of MOZ target genes in mouse embryonic fibroblasts; assay type: cell-based; details: 5 μM
Description: Mouse embryonic fibroblasts are isolated from wild type or Moz heterozygous animals and cultured at 3% oxygen/5% carbon dioxide/92% nitrogen. Cells are plated at a density of 1,020 cells/cm^2 or 2,040 cells/cm^2 or 10,204 cells/cm^2. A reference value for MOZ inhibition is generated through comparison with cells with a complete null mutation of MOZ. The absence of a functional Moz gene leads to senescence in 7-14 days at 3% oxygen.
Cells are plated in triplicate at 2,040 cells/cm^2 in the presence of a test compound. Compounds are tested at 500 nM, 1 μM, 2 μM, 5 μM, 10 μM and 20 μM. Control compounds include those that have a similar structure but show no activity in biochemical assays. […] RT-qPCR is used to assay the levels of MOZ target genes Ink4a, ink4b, Arf, Cdc6, Cdca8, Cdca2, E2f2, Ezh2, Skp2 and Melk.

[5] = tested on: wild type pro-B cells; assay: Bioassay 5: pro-B cell colony formation in methylcellulose, wild type; assay type: cell-based
Description: (§1) Pro-B cells are purified by positive selection using antiCD19-magnetic beads and fluorescence activated cell sorting using the criterion: cell surface expression of B220, CD19 and cKit but not IgM. After purification, 25,000 pro-B cells are seeded onto 3.5 cm culture dishes plate containing methylcellulose (MethoCult M3630, STEM CELL technologies) for 7 days. After 7 days culture, colonies in which there were more than 50 cells are counted. Subsequently, 190,000 pro-B cells are replated into methylcellulose for another 7 days of culture, followed by enumeration.

[6] = tested on: Eμ-Myc pre-leukemia pro-B cells; assay: Bioassay 5: pro-B cell colony formation in methylcellulose, Eμ-Myc; assay type: cell-based; details: 1 μM, Eμ-Myc pre-leukemia pro-B cells
Description: as §1

[7] = tested on: Wild type pre B cells; assay: Bioassay 7: pre-B cell number dose response, wild type; assay type: cell-based; details: in words
Description: Pre B cells are isolated from bone marrow according to the criterion: cell surface expression of B220, CD19, but not cKit or IgM. Pre-B cells are cultured on OP9 cells with IL7 in the presence of compounds at concentrations from 0.01 μM to 20 μM in vitro for 4 days. Cell number is then enumerated and an IC50 is calculated.

[8] = tested on: Wild type pre B cells; assay: Bioassay 8: cell cycle analysis (DNA content and Ki67); assay type: cell-based; details: 1 μM
Description: (§2) Pre B cells are isolated from bone marrow according to the criterion: cell surface expression of B220, CD19, but not cKit or IgM. Pre-B cells are cultured on OP9 cells with IL7 in the presence of compounds at various concentrations. The stages of the cell cycle in cultured pre-B cells with and without treatment is analysed by flow cytometry using a stain for DNA content combined with the cell cycle marker Ki67 to enumerate the proportion of cells in different phases of the cell cycle.

[9] = tested on: wild type pre-B cells; assay: Bioassay 9: cell cycle analysis (DNA content and BrdU); assay type: cell-based; details: 1 μM
Description: as §2, with “in” for “in cultured”, “using” for “by”, “cytometry to assay,” for “cytometry”, “BrdU” for “the cell cycle marker Ki67”, “determine” for “enumerate”, “S phase.” for “different phases of the cell cycle.”

MOZ enzyme, sequence (Q92794 whole entry, species assumed): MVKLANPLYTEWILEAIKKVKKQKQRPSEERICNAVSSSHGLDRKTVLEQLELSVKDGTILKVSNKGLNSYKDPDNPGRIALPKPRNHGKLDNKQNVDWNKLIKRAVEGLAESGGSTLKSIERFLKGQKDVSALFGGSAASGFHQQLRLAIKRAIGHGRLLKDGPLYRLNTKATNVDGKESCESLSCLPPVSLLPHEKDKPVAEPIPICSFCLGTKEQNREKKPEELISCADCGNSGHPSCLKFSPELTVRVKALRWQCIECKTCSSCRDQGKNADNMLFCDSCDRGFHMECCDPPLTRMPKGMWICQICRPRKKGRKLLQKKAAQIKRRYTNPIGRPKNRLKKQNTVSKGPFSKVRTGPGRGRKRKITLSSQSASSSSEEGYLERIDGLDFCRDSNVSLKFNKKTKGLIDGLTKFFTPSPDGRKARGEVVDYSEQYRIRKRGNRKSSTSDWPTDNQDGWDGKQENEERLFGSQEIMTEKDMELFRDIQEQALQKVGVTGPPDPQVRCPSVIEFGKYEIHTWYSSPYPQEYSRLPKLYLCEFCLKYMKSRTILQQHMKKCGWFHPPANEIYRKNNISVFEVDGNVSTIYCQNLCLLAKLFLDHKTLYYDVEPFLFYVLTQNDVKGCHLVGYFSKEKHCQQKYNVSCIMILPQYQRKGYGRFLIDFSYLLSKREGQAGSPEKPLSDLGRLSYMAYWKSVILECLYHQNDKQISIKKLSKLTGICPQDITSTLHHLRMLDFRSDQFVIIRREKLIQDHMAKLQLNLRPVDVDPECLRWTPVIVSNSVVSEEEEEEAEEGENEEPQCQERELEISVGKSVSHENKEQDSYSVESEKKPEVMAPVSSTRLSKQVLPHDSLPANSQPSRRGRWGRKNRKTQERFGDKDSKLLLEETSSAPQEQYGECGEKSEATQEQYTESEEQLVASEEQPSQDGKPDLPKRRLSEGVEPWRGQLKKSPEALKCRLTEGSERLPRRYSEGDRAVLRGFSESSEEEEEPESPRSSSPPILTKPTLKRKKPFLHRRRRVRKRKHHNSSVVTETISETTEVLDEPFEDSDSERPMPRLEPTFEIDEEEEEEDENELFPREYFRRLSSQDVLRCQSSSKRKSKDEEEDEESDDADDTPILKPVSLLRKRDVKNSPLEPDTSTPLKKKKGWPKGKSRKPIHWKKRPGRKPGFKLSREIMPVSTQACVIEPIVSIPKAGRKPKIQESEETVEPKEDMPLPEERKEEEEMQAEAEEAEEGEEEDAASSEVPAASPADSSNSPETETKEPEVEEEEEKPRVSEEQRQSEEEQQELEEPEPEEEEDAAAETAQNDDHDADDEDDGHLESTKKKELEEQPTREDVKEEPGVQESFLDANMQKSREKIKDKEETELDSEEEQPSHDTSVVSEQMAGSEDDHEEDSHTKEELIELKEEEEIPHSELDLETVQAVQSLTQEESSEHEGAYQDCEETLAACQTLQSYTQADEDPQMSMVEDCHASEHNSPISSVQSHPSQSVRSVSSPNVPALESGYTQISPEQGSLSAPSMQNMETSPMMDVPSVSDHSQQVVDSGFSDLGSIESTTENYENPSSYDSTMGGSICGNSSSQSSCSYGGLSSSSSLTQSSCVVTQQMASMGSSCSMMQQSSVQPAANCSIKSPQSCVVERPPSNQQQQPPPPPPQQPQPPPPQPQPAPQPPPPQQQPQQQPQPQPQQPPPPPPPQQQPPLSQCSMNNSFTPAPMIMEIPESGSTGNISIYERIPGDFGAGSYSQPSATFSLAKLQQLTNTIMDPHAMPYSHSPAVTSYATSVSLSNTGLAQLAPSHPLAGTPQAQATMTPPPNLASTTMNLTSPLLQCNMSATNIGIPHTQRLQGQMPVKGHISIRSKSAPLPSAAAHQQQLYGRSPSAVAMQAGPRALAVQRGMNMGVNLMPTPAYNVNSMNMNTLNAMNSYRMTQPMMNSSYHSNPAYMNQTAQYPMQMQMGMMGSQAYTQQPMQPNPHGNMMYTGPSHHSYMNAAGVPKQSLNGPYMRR

Row | SMILES | IC50 [1] [nM] | other results
1 | O=C(NNS(=O)(=O)c1ccc2ccccc2c1)c1cccc(-c2ccccc2)c1 [Compound 1] | 2950 | –
2 | O=C(NNS(=O)(=O)c1ccccc1)c1cccc(-c2ccccc2)c1 [Compound 2] | 287 | –
3 | CC(C)c1cccc(C(=O)NNS(=O)(=O)c2ccc3ccccc3c2)c1 [Compound 3] | 7800 | –
4 | Cc1cccc(C(=O)NNS(=O)(=O)c2ccc3ccccc3c2)c1F [Compound 4] | 195 | –
5 | O=C(NNS(=O)(=O)c1ccccc1)c1cccc(I)c1 [Compound 6] | 2040 | –
6 | O=C(NNS(=O)(=O)c1ccccc1)c1cccc(-c2cc[nH]n2)c1 [Compound 7] | 7440 | –
7 | O=C(NNS(=O)(=O)c1ccccc1)c1cccc(-c2ccsc2)c1 [Compound 8] | 162 | –
8 | O=C(NNS(=O)(=O)c1ccccc1)c1cccc(-c2cccs2)c1 [Compound 14] | 470 | –
9 | O=C(NNS(=O)(=O)c1ccccc1)c1cccc(-c2ccc(F)cc2)c1 [Compound 25] | 3830 | –
10 | COc1ccc(-c2cccc(C(=O)NNS(=O)(=O)c3ccccc3)c2)cc1 [Compound 26] | 40000 | –
11 | COc1ccccc1-c1cccc(C(=O)NNS(=O)(=O)c2ccccc2)c1 [Compound 27] | 11200 | –
12 | COc1cccc(-c2cccc(C(=O)NNS(=O)(=O)c3ccccc3)c2)c1 [Compound 28] | 3220 | –
13 | O=C(NNS(=O)(=O)c1ccccc1)c1cccc(-c2ccccc2F)c1 [Compound 29] | 548 | –
14 | O=C(NNS(=O)(=O)c1ccccc1)c1cccc(-c2cccc(F)c2)c1 [Compound 30] | 721 | –
15 | N#Cc1cccc(-c2cccc(C(=O)NNS(=O)(=O)c3ccccc3)c2)c1 [Compound 31] | 8550 | –
16 | O=C(NNS(=O)(=O)c1ccccc1)c1cccc(-c2ccc(Cl)cc2)c1 [Compound 32] | 25800 | –
17 | O=C(NNS(=O)(=O)c1ccccc1)c1cccc(-c2ccccc2)c1F [Compound 33] | 270 | –
18 | O=C(NNS(=O)(=O)c1ccccc1)c1cccc(-c2ccccc2Cl)c1 [Compound 34] | 8020 | –

Row | SMILES | IC50 [1] [nM] | other results
19 | O=C(NNS(=O)(=O)c1ccccc1)c1cc(-c2ccccc2)cc(Cl)c1F [Compound 35] | 82 | –
20 | O=C(NNS(=O)(=O)c1ccccc1)c1cc(-c2cccs2)cc(Cl)c1F [Compound 37] | 85400 | inhibition of cell proliferation [2]: no inhibition of cell proliferation was detected
21 | O=C(NNS(=O)(=O)c1ccccc1F)c1cc(F)cc(-c2ccccn2)c1 [Compound 46] | – | numbers of pre B cells in the bone marrow [3]: markedly reduced numbers of pre B cells in the bone marrow; immature B cells, percentage of WBC per femur [3]: 3.33%; mature B cells, percentage of WBC per femur [3]: 3.65%; pre-B cells, percentage of WBC per femur [3]: 10.59%; pro-B cells, percentage of WBC per femur [3]: 1.14%
22 | Cc1cc(-c2ncccn2)cc(C(=O)NNS(=O)(=O)c2ccccc2)c1F [Compound 53] | – | CDC6 mRNA % control [4]: 62.8%
23 | O=C(NNS(=O)(=O)c1ccccc1F)c1cc(F)cc(-n2cccn2)c1 [Compound 64] | – | CDC6 mRNA % control [4]: 60.9%
24 | O=C(NNS(=O)(=O)c1ccccc1F)c1cccc(OCC2CC2)c1 [Compound 90] | 116 | –
25 | O=C(NNS(=O)(=O)c1ccccc1)c1cccc(-c2cccnc2)c1 [Compound 98] | 13100 | –
26 | O=C(NNS(=O)(=O)c1ccccc1)c1ccnc(-c2ccccc2)c1 [Compound 106] | 19000 | –
27 | O=C(NNS(=O)(=O)c1ccccc1)c1cc(-c2ccnnc2)ccc1F [Compound 108] | – | colony number ([5]; 1 μM, wild type pro-B cells, primary colonies): 245.125; colony number, secondary colony formation ([5]; 1 μM, wild type pro-B cells, secondary colony formation): 77; colony formation ([5]; in words, compared to vehicle): inactive; colony number ([6]; primary colonies): 180.5; colony number, secondary colony formation ([6]; secondary colony formation): 78; effect on pre B cell proliferation [7]: has no effect; cells in G0 ([8]; cultured for 4 days): 10.8%; cells in G1 ([8]; cultured for 4 days): 53.7%; cells in G2/M ([8]; cultured for 4 days): 12.1%; cells in S ([8]; cultured for 4 days): 23.6%; cells in G0 ([8]; cultured for 6 days): 8.6%; cells in G1 ([8]; cultured for 6 days): 62.0%; cells in G2/M ([8]; cultured for 6 days): 8.5%; cells in S ([8]; cultured for 6 days): 14.7%; cells in G0/G1 (BrdU) [9]: 44.2; cells in G2/M (BrdU) [9]: 5.2; cells in S (BrdU) [9]: 46.2
28 | O=C(NNS(=O)(=O)c1ccccc1)c1cncc(-c2ccccc2)c1 [Compound 109] | 21300 | –
29 | O=C(NNS(=O)(=O)c1ccccc1)c1cccc(-c2ccccc2)n1 [Compound 116] | 16600 | –
30 | O=C(NNS(=O)(=O)c1ccccc1)c1cc(-c2ccc(F)cc2)ccc1F [Compound 133] | 839 | –
31 | CCOc1cc(C)cc(C(=O)NNS(=O)(=O)c2ccccc2F)c1 [Compound 137] | – | CDC6 mRNA % control [4]: 67.5%; numbers of pre B cells in the bone marrow [3]: markedly reduced numbers of pre B cells in the bone marrow; immature B cells, percentage of WBC per femur [3]: 3.92%; mature B cells, percentage of WBC per femur [3]: 3.16%; pre-B cells, percentage of WBC per femur [3]: 12.71%; pro-B cells, percentage of WBC per femur [3]: 1.01%
32 | O=S(=O)(NNCc1cccc(-c2cccc(Cl)c2)c1)c1ccccc1 [Compound 147] | 91000 | –
33 | Cc1cccc(C(=O)NNS(=O)(=O)c2ccc3ccccc3c2)c1 [Compound 148] | 1770 | –
34 | Cc1cc(-c2ccccc2)c(F)c(C(=O)NNS(=O)(=O)c2ccccc2)c1F [Compound 154] | 10 | –
35 | Cc1cc(-n2cccn2)c(F)c(C(=O)NNS(=O)(=O)c2ccccc2)c1F [Compound 155] | 71 | –
36 | O=C(NNS(=O)(=O)c1ccccc1)c1cc(-c2ccccc2)ccc1F [Compound 157] | 17 | –
